row,SMILES,melting point [°C]
1,O=C(O)c1cccnc1Oc1ccc(F)cc1,187 to 189
2,CCc1ccc(CCO)nc1,42
3,Oc1ccc(F)nc1,152
4,CC(=O)OC1(C(C)=O)CCC2C3C=C(C)C4=CC(=O)CCC4(C)C3CCC21C (centres undefined),214
5,FC(F)(F)c1nn(CN2CCN(Cn3nc(C(F)(F)F)n(N=Cc4ccccc4)c3=S)CC2)c(=S)n1N=Cc1ccccc1,333
6,O=C(O)CC(=O)CC(=O)O,133
7,Cc1nc(-c2ccc(Cl)cc2)sc1C(=O)CBr,120 to 121
8,Clc1ccc(C2C3CCc4ccccc4C3=NN2c2ccc(Cl)cc2)cc1 (centres undefined),186 to 188
9,O=C(Nc1ccccn1)c1cc([N+](=O)[O-])cc([N+](=O)[O-])c1,201
10,CCOC(=O)c1csc(N2CCOCC2)n1,88.5 to 90
11,CCC(C)(C)C(C)(C)O,-1
12,"Cc1ccc(C(=O)OC(C(=O)O)C(OC(=O)c2ccc(C)cc2)C(=O)O)cc1 (single isomer, unassigned; (+))",165 to 167
13,O=C(C(=O)c1cccc2ccccc12)c1ccccc1,102
14,Cc1ccc(CO)cc1F,35
15,OOC1CCCCC1,-20
16,Nc1ccc(C(F)(F)F)cc1,38
17,O=C(O)C1(c2c(F)cccc2Cl)CCCCC1,128 to 134
18,C=C(Br)C(=O)O,68
19,Nc1c(Br)cc(Br)cc1C(=O)c1ccccc1,98
20,Cc1ccc(C(=O)O)cc1F,170 to 175
21,Cc1cnc(CO)c(C)c1[N+](=O)[O-],67
22,Clc1cccc2cc3ccccc3cc12,83.5
23,COC(=O)c1ccccc1S(N)(=O)=O,125 to 127

row,SMILES,melting point [°C]
1,O=C(Oc1c(F)c(F)c(F)c(F)c1F)c1ccccc1OC1CCOCC1,62 to 64
2,CC1CCC(C(C)C)C(OC(=O)C2=CCC(C(=O)OC3CC(C)CCC3C(C)C)CC2)C1 (centres undefined),125
3,O=C(O)Cc1cc(F)ccc1F,125
4,CNC(=Nc1ncccc1C)SC,25 to 27
5,O=C1C(=C2C=Cc3ccccc3N2)C(=O)c2c1cccc2[N+](=O)[O-],360
6,O=C(O)Cc1ccc2c(c1)NC(=O)C2,238
7,COc1ccc(NC(=O)C(C)=O)cc1,127
8,O=C(Cl)c1ccc(-c2ccccc2)cc1,113
9,CC(=O)O[C@@H]1CC[C@@]2(C)C(CC[C@@H]3[C@@H]2CC[C@@]2(C)[C@H]3CC[C@]2(O)/C=C/c2ccccc2)C1 (some centres undefined),160 to 164
10,CC12CCC(/C(=N/O)C/C1=N\O)C2(C)C (centres undefined),209
11,C(=Nc1ccccc1)=Nc1ccccc1,169
12,CC(C)(C(=O)O)C1=CCC2(C)C(CCC3C4CCC(O)C4(C)CCC32)C1 (centres undefined),264
13,c1c2c(cc3c1CC3)CC2,101
14,O=C1C=CC(=O)C(c2ccccc2)=C1,114
15,O=C(O)CC[C@H]1CC[C@H](CCC(=O)O)C1=O,121
16,OC1OC(C2COC3(CCCCC3)O2)C2OC3(CCCCC3)OC12 (centres undefined),120 to 124
17,Cc1cncc(N2CCC(CO)CC2)n1,103 to 107
18,CC(=O)Nc1ccc(-c2csc(N)n2)cc1,250
19,CCC1Nc2cc(Cl)c(S(N)(=O)=O)cc2S(=O)(=O)N1 (centres undefined),270
20,C=CC(=O)ON1C(=O)CCC1=O,69
21,O=C(O)c1ccc(-c2cnco2)cc1,300 to 301
22,Cn1cc(C(=O)Nc2ccc(F)cc2-c2ccc(Cl)c(Cl)c2)c(C(F)F)n1,147
23,Nc1cccc(CN2CCCC2)c1,72 to 74

row,SMILES,melting point [°C]
1,Clc1cc2c(c(Cl)c1Cl)Oc1c(cc(Cl)c(Cl)c1Cl)O2,243
2,O=CC1=C(Cl)c2cc(Cl)ccc2SC1,84 to 86
3,CCCC(/C=C1\C(=O)C2(C)CCC1C2(C)C)(/C=C1\C(=O)C2(C)CCC1C2(C)C)C(=O)OCC (centres undefined),161
4,Cc1ccc(Cl)c(CO)c1F,57
5,Cc1noc(C)c1N,52 to 54
6,CSc1nc2cc(N=Cc3ccc4c(c3)OCO4)ccc2[nH]1,213 to 215
7,CCOC(=O)C=Cc1ccc([N+](=O)[O-])cc1,139
8,CCN(CC)c1ccc(N=Nc2ccccc2)cc1,97.5
9,C/C(=N/NC(N)=O)C(C)Cc1ccccc1 (centres undefined),112
10,CCCCCCCCCCCCCCCc1cccc(O)c1,53.5
11,OCc1cccc(Oc2ccccn2)c1,57 to 59
12,OCc1cccc(-c2cccs2)c1,46 to 49
13,N#C/C(=C\c1ccc(Cl)cc1Cl)c1nc(-c2cccc3ccccc23)cs1,132
14,N#Cc1cccc2ccsc12,67.5 to 72.5
15,COC(=O)c1cc2ccccc2c(OC(=O)c2ccccc2C)c1C(=O)OC,138 to 140
16,c1cc2c(c3c1CCCC3)CCCC2,16.7
17,O=c1oc2c3c4c(cc2c2c1CCC2)CCCN4CCC3,149
18,CCCCC(CC)CO[N+](=O)[O-] (centres undefined),75
19,CC(C)CCC#N,-51
20,CC12CCC3C(CCC45OC4C(=O)C=CC35O)C1CCC2=O (centres undefined),201 to 203
21,CCOC(=O)CCC(C)C1CCC2C3C=CC4CC(OC(C)=O)CCC4(C)C3CC(OC(C)=O)C12C (centres undefined),83 to 84
22,Cc1cc(I)cc(C)c1O,99 to 102
23,Nc1ccc([N+](=O)[O-])c(Cl)c1,159

row,SMILES,melting point [°C]
1,O=[N+]([O-])c1ccsc1Cl,51 to 52
2,Cc1ccc(N=Nc2ccc(C)cc2)cc1,140
3,CC1(C)N[C@H](C(=O)O)Cc2c1[nH]c1ccccc21,227 to 228
4,Cc1cc(C)c(S(=O)(=O)n2ccnc2)c(C)c1,95 to 99
5,Cc1ccc(CNC2=CC(=O)c3ccccc3C2=O)nc1,134 to 136
6,CCCCCCc1ccc2c(c1)CCC2,-34
7,O=C1C(=Cc2ccc(N(CCCl)CCCl)cc2)SC(=S)N1CN1CCOCC1,164
8,CC1CC(=Cc2ccccc2)C(=O)C(=Cc2ccccc2)C1 (centres undefined),100 to 101
9,NNc1cnn(-c2ccccc2)c(=O)c1Cl,170
10,Nc1n[nH]c(N)c1Cc1ccc2c(c1)OCO2,169 to 171
11,CC1CCC(C(C)C)C(OC(=O)C(C(=O)c2ccccc2)c2ccccc2)C1 (centres undefined),115
12,NC(=O)N1C(=O)C=CC1=O,159
13,Clc1nc(Cl)c(Cl)c(Cl)n1,69
14,CCCSc1ccccc1,-45
15,COc1cc(NC(=S)N(C)C)c(C(c2ccc(C)o2)c2ccc(C)o2)cc1OC,163
16,Cc1ccc(C(=O)C2=NOC3C(=O)N(c4ccc(C(=O)O)cc4)C(=O)C23)cc1 (centres undefined),201
17,Clc1cccc2cc[nH]c12,58
18,CCC1(C2=CCCCCC2)C(=O)NC(=O)NC1=O,174
19,O=c1c2ccccc2[nH]c(=S)n1-c1ccc(F)cc1,337 to 339
20,COc1ccc2c(=O)c3ccccc3oc2c1CN1CCCCC1,160

# From a melting point compilation (Tetko et al.)
